The record followed here is patent US20130196991A1, “SUBSTITUTED INDOLES, ANTIVIRAL ACTIVE COMPONENT, METHOD FOR PREPARATION AND USE THEREOF” (priority 2010, published 2013).

Where a name gives a salt, the structure may show the parent alone.

The first test has as its system JFH-1 HCV. As to the kind of experiment: microbe, parasite or virus in culture. The test is classed as cell-based, hepatitis C virus (HCV). The conditions noted are these: Hepatitis C virus, Huh-7, read-out: Inhibition of hepatitis C virus (IC50). How it is done: Determination of antiviral activity of compounds of the general formula 1 towards hepatitis C viruses.
Determination of antiviral activity of compounds of the general formulas 1, 1.1, 1.2, 1.3, 1.3.1, 1.3.1.1 towards HCV was carried out on Huh7 cell culture. Immune in vitro (ELISA—enzyme-linked immunosorbent assay) test ELISA towards HCV virus cor-antigen was used. By means of this test inhibition effectiveness of antigen production (and, consequently, virus replication) by tested compounds in cells infected by JFH-1 virus was measured. Used in this experiment Huh7 cell culture having been infected with HCV virus is capable to support full range of viral replication.
Recombinant JFH-1 HCV virus used in the experiment was prepared by means of transfection of Huh7 cells by RNA JFH-1, prepared by transcription in vitro. JFH-1 DNA [Wakita, T. u ∂p. Production of Infectious Hepatitis C Virus in Tissue Culture from a Cloned Viral Genome. Nature Medicine 2005, 11:791-796.]) used as DNA matrix for transcription (NCBI, catalogue number AB047639, was synthesized chemically.
Huh7 cells were sowed in 96-well plates (3.0×10^3 cells in every well) Huh-7 medium (50 μl per every well). 9 solutions of every tested compound in Huh-7 medium in the range of concentrations of 0.09-200 μM were prepared. In 4 h after cell sowing the initial solution was removed by aspiration, after that 50 μl of tested compound solution and 50 μl of JFH-1 HCV were added to every well. As a result, the final concentrations of the tested compounds were in the range of 0.045-100 μM. If required the step of infection was carried out in 24 h after addition of tested compounds. After incubation for 16 h viral medium was removed by aspiration, and the tested compounds were added to the cultures in initial concentration to final value of 200 μl. The cells and tested compounds were incubated additionally for 4 days at 37° C. in the atmosphere of air containing 5% CO2. After the removal of nutrient solution the cells were fixed by addition of acetone/methanol (1:1) mixture in amount of 250 μl/well for 1 minute, washed three times with Phosphate Buffer (PBS buffer and then they were blocked by 10% FBS-PBS solution (150 μl/well)) for 1 h at room temperature. Each well was washed three times with PBS solution, incubated with mouse monoclonal antibodies to HCV cor-antigen (Affinity BioReagents, Catalogue: MA1-080), dissolved in FBS-PBS buffer (100 μl/well, prepared from the initial concentrate, diluted in the ratio 1:500 in 10% FBS-PBS), for 2 h at 37° C. Each well was washed three times with PBS solution, incubated with antibodies specific to mouse immunoglobulins, conjugated with horseradish peroxidase (HRP, 100 mkl/well of solution prepared from the initial concentrate, diluted in ratio 1:2500 in 10% FBS-PBS) for 1 h at 37° C. Each well was washed three times with PBS solution, then treated with OPD solution in amount of 100 μl/well (prepared by dilution of one OPD tablet in B 12 ml of citrate/phosphate buffer with addition of 5 μl of 30% H2O2) for 30 min in darkness at room temperature. The reaction was stopped by addition of 2N H2SO4 (100 μl/well), after that optical density at 490 nm was measured. IC50 value representing the concentration of the tested compound at which virus replication is lowered twice was calculated for every tested compound using Xlfit program according to the method described in [Wakita, T. u ∂p. (2005). Production of Infectious Hepatitis C Virus in Tissue Culture from a Cloned Viral Genome. Nature Medicine; 11:791-796.].
As to `CC(C)c1ccc2c(c1)c1c3n2CCN(CC(N)=O)C3CCC1` (centres unmarked) [1.2(1), 2-(8-isopropyl-1,2,3a,4,5,6-hexahydro-3H-pyrazino[3,2,1-jk]carbazol-3-yl)-acetamide], the 50% inhibitory concentration (IC50) (in general, the concentration that gives 50% inhibition) was 1700 nM.

As to `c1ccc(CN2CCCn3c4c(c5cc(C6CCCCC6)ccc53)CCCC42)cc1` (centres unmarked) [1.2(8)], the IC50 came to 1600 nM.

For the compound `CCCN1CCN(C(=O)C2CCN(Cc3cc4ccccc4n3Cc3ccc(Cl)cc3)CC2)CC1` [1.3.1.1(13), {1-[1-(4-chlorobenzyl)-1H-indol-2-ylmethyl]-piperidin-4-yl}-(4-propylpiperazin-1-yl)-methanone], the half-inhibitory concentration (IC50) worked out at 300 nM.

For the compound `CCCN1CCN(C(=O)C2CCN(Cc3cc4ccccc4n3C)CC2)CC1` [1.3.1.1(14) * 2 HCl, 1-Methyl-2-({4-[(4-propylpiperazin-1-yl)carbonyl]piperidin-1-yl}methyl)-1H-indole dihydrochloride], the IC50 is 2100 nM.

Regarding `CN1CCN(C(=O)C2CCN(Cc3cc4ccccc4n3C)CC2)CC1` [1.3.1.1(15) * 2 HCl, 1-Methyl-2-({4-[(4-methylpiperazin-1-yl)carbonyl]piperidin-1-yl}methyl)-1H-indole], the half-inhibitory concentration (IC50) was determined as 2400 nM.

As for `CCCN1CCN(C(=O)C2CCCN(Cc3cc4ccccc4n3Cc3ccc(Cl)cc3)C2)CC1` (centres unmarked) [1.3.2.1(13) * 2 HCl, 1-(4-chlorobenzyl)-2-({3-[(4-propylpiperazin-1-yl)carbonyl]piperidin-1-yl}methyl)-1H-indole dihydrochloride], the IC50 was 400 nM.

With `Clc1ccc(Cn2c(CN3CCCC3)nc3ccccc32)cc1` [I Control, Clemizole, reference compound], the IC50 worked out at 9000 nM.

The test is the same for the next values; noted with them: Huh7 cell culture infected with recombinant JFH-1 HCV; ELISA of cor-antigen; concentration at which virus replication is lowered twice; read-out: Inhibition of hepatitis C virus (IC50).
With `CCCN1CCN(C(=O)C2CCCN(Cc3cc4ccccc4n3C)C2)CC1` (centres unmarked) [1.3.2.1(14) * 2 HCl, 1-Methyl-2-({3-[(4-propylpiperazin-1-yl)carbonyl]piperidin-1-yl}methyl-1H-indoledihydrochloride], the IC50 worked out at 2100 nM.
